Data published in patent publication US12643884B2, “1-(2-(4-cyclopropyl-1H-1,2,3-triazol-1-yl)acetyl)-4-hydroxypyrrolidine-2-carboxa|mide derivatives as VHL inhibitors for the treatment of anemia” (Genentech, Inc., priority 2020, dated 2026).

Assays:
VHL = biological target: T1, VHL (Homo sapiens, UniProt P40337); test: VHL nanoBRET (+Digitonin); type: cell-based
T1 construct: expressed in transfected cells

[1] = biological target: T2, NanoLuc VHL fusion protein stably expressed in HEK 293 cells (Homo sapiens, UniProt P40337); test: VHL HEK-293 BRET Assay (VHL NanoBRET Target Engagement Assay); type: cell-based; settings: for IC50: HEK293 cells, nanoBRET, geometric mean where more than one measurement, read-out: VHL binding in cells (HEK293 nanoBRET); for Ratio cell permeability shift: ratio of nanoBRET in cells to nanoBRET +Digitonin
T2 construct: expressed in transfected cells
Description: The VHL NanoBRET™ Target Engagement Assay analyzes the apparent affinity of test compounds for VHL in cells by competitive displacement of a VHL NanoBRET™ tracer reversibly bound to a NanoLuc® VHL fusion protein stably expressed in the cells.
Test compounds were transferred to the assay plate (384 Well White Non-Binding Corning Assay Plates (Corning-3574)) using an Echo 555 Liquid Handler (Labcyte) in 2.5 nL increments and, as appropriate, intermediate stock concentrations of compounds, in order to prepare a titration series. 50 nL of control compound (10 mM; parental unlabeled VHL antagonist; see structure below) and 50 nL of DMSO (negative control) were dispensed into the appropriate control wells. DMSO was backfilled to a final volume of 50 nL as required. 50 nl per well of 1 mM VHL NanoBRET™ Tracer in DMSO (NanoBRET™ Tracer-PEG2-590 (see structure below)) was transferred into each well using an Echo 555 (ultimately yielding a final concentration of 1 uM). HEK 293 RT VHL-NanoLuc® stable cells were cultured in DMEM High Glucose with Pyruvate, 10% fetal bovine serum, 2 mg/mL of Geneticin Selective Antibiotic (50 mg/ml) and 2 mM HEPES (1 M). Cells were seeded in Opti-MEM (Life Technologies-11058-021), 1.7×10^5 cells/mL, 40 μl per well into the assay plate, centrifuged at 500 rpm for 30 seconds and incubated for 2 hours. Max Signal control wells consisted of DMSO only treated wells. Minimum Signal control wells contained of 10 uM parental unlabeled VHL antagonist (control compound—see structure below). 3× Complete Substrate plus Inhibitor Solution was prepared in Opti-MEM (consists of a 1:166 dilution of NanoBRET™ Nano-Glo® Substrate plus a 1:500 dilution of Extracellular NanoLuc® Inhibitor in Opti-MEM), and 20 ul was dispensed into each well of the 384-well plate and centrifuged at 1000 rpm for 1 minute, then incubated for 2 minutes at room temperature. Background Signal control wells were prepared without tracer for background correction steps.
Plates were read using a PerkinElmer Envision Reader (model 2104-0020) equipped with Luminescence option (Mirror: BRET2 Enh (PE Barcode 659), Emission Filter: Omega 610LP (Barcode 504), 2nd Emission Filter: Umbelliferone 460 (Barcode 207), Measurement height: 6.5 mm, Measurement time: 1 s). The raw BRET ratio values were calculated by dividing the acceptor emission value (610 nm) by the donor emission value (460 nm) for each sample. To correct for background, the BRET ratio in the absence of tracer (average of no-tracer control samples) was subtracted from the BRET ratio of each sample. Raw BRET units were converted to milliBRET units (mBU) by multiplying each raw BRET value by 1,000. The normalized NanoBRET™ signal was calculated relative to the Max Signal control wells (DMSO treated control wells) and the Minimum Signal control wells. Percentage inhibition was calculated relative to the Minimum Signal control and Maximum Signal control wells. IC50 values were derived by four parameter curve fitting using the Robust method.

T1 sequence (P40337 whole entry): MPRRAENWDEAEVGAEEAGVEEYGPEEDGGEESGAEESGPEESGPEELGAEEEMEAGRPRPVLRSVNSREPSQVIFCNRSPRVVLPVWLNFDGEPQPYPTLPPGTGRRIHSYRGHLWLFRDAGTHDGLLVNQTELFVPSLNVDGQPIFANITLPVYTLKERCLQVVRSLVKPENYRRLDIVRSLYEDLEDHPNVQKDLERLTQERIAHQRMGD
T1 sequence (Q15370 whole entry partner): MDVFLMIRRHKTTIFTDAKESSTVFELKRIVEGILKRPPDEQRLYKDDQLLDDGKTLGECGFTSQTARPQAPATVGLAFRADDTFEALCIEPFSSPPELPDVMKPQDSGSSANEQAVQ
T1 sequence (Q15369 whole entry partner): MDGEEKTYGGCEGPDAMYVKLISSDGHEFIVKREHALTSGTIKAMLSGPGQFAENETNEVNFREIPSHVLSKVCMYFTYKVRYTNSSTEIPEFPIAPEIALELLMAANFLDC
T2 sequence (P40337 whole entry, the tested form may be a part): as the sequence (P40337 whole entry) above
T2 sequence (Q15370 whole entry partner, the tested form may be a part): as the sequence (Q15370 whole entry partner) above
T2 sequence (Q15369 whole entry partner, the tested form may be a part): as the sequence (Q15369 whole entry partner) above

| Structure (SMILES) | EC50 (VHL) [nM] | IC50 [1] [nM] | Ratio cell permeability shift [1] |
| --- | --- | --- | --- |
| CC(C)NC(=O)[C@@H]1C[C@@H](O)CN1C(=O)[C@@H](n1cc(C2CC2)nn1)C(C)(C)C [Final product from Example S15, (2S,4R)-1-((S)-2-(4-cyclopropyl-1H-1,2,3-triazol-1-yl)-3,3-dimethylbutanoyl)-4-hydroxy-N-isopropylpyrrolidine-2-carboxamide] | 5990 | 9090 | 1.52 |
| CC(C)(C)[C@@H](C(=O)N1C[C@H](O)C[C@H]1C(=O)NCCF)n1cc(C2CC2)nn1 [Final product from Example S16, (2S,4R)-1-((S)-2-(4-cyclopropyl-1H-1,2,3-triazol-1-yl)-3,3-dimethylbutanoyl)-N-(2-fluoroethyl)-4-hydroxypyrrolidine-2-carboxamide] | 3560 | 2430 | 0.68 |
| CC(C)(C)[C@@H](C(=O)N1C[C@H](O)C[C@H]1C(=O)NC1(C(F)(F)F)CC1)n1cc(C2CC2)nn1 [Final product from Example S18, (2S, 4R)-1-((S)-2-(4-cyclopropyl-1H-1,2,3-triazol-1-yl)-3,3-dimethylbutanoyl)-4-hydroxy-N-(1-(trifluoromethyl)cyclopropyl)pyrrolidine-2-carboxamide] | 4990 | 4990 | 1 |
| CNC(=O)[C@@H]1C[C@@H](O)CN1C(=O)[C@H](C(C)C)n1cc(-c2cccs2)nn1 [Final product from Example S28, (2S, 4R)-4-hydroxy-N-methyl-1-((S)-3-methyl-2-(4-(thiophen-2-yl)-1H-1,2,3-triazol-1-yl)butanoyl)pyrrolidine-2-carboxamide] | 790 | 590 | 0.75 |
| CNC(=O)[C@@H]1C[C@@H](O)CN1C(=O)[C@H](C(C)C)n1cc(-c2ccccc2)nn1 [Final product from Example S34, (2S,4R)-4-hydroxy-N-methyl-1-((S)-3-methyl-2-(4-phenyl-1H-1,2,3-triazol-1-yl)butanoyl)pyrrolidine-2-carboxamide] | 1270 | 1380 | 1.09 |
| CNC(=O)[C@@H]1C[C@@H](O)CN1C(=O)[C@H](C(C)C)n1cc(-c2cccnc2)nn1 [Final product from Example S36, (2S,4R)-4-hydroxy-N-methyl-1-((S)-3-methyl-2-(4-(pyridin-3-yl)-1H-1,2,3-triazol-1-yl)butanoyl)pyrrolidine-2-carboxamide] | 1010 | 1220 | 1.21 |
| CNC(=O)[C@@H]1C[C@@H](O)CN1C(=O)[C@H](C(C)C)n1cc(-c2ncccn2)nn1 [Final product from Example S38, (2S,4R)-4-hydroxy-N-methyl-1-((S)-3-methyl-2-(4-(pyrimidin-2-yl)-1H-1,2,3-triazol-1-yl)butanoyl)pyrrolidine-2-carboxamide] | 4060 | 13800 | 3.40 |
| CC(C)[C@@H](C(=O)N1C[C@H](O)C[C@H]1C(=O)N(C)C)n1cc(C2CC2)nn1 [Final product from Example S41, (2S,4R)-1-((S)-2-(4-cyclopropyl-1H-1,2,3-triazol-1-yl)-3-methylbutanoyl)-4-hydroxy-N,N-dimethylpyrrolidine-2-carboxamide] | 72300 | 49900 | 0.69 |

More lines, in order of falling EC50 (VHL), values ahead:

| EC50 (VHL) [nM] | IC50 [1] [nM] | Ratio cell permeability shift [1] | Structure (SMILES) |
| --- | --- | --- | --- |
| 4940 | – | 0.96 | CNC(=O)[C@@H]1C[C@@H](O)CN1C(=O)C(=C(C)C)n1cc(C2CC2)nn1 [Final product from Example S27, (2S, 4R)-1-[2-(4-cyclopropyltriazol-1-yl)-3-methyl-but-2-enoyl]-4-hydroxy-N-methyl-pyrrolidine-2-carboxamide] |
| 3890 | 4150 | 1.07 | CCNC(=O)[C@@H]1C[C@@H](O)CN1C(=O)[C@@H](n1cc(C2CC2)nn1)C(C)(C)C [Final product from Example S17, (2S,4R)-1-((S)-2-(4-cyclopropyl-1H-1,2,3-triazol-1-yl)-3,3-dimethylbutanoyl)-N-ethyl-4-hydroxypyrrolidine-2-carboxamide] |
| 3290 | 2830 | 0.86 | CNC(=O)[C@@H]1C[C@@H](O)CN1C(=O)[C@H](C(C)C)n1cc(C2CCC2)nn1 [Final product from Example S21, (2S,4R)-1-((S)-2-(4-cyclobutyl-1H-1,2,3-triazol-1-yl)-3-methylbutanoyl)-4-hydroxy-N-methylpyrrolidine-2-carboxamide] |
| 2780 | 3210 | 1.15 | CNC(=O)[C@@H]1C[C@@H](O)CN1C(=O)[C@H](C(C)C)n1cc(C2CCCC2)nn1 [Final product from Example S22, (2S, 4R)-1-[(2S)-2-(4-cyclopentyltriazol-1-yl)-3-methyl-butanoyl]-4-hydroxy-N-methyl-pyrrolidine-2-carboxamide] |
| 2120 | 3200 | 1.51 | CNC(=O)[C@@H]1C[C@@H](O)CN1C(=O)[C@H](C(C)C)n1cc(-c2cnco2)nn1 [Final product from Example S32, (2S, 4R)-4-hydroxy-N-methyl-1-[(2S)-3-methyl-2-(4-oxazol-5-yltriazol-1-yl)butanoyl]pyrrolidine-2-carboxamide] |
| 2010 | 1700 | 0.85 | CNC(=O)[C@@H]1C[C@@H](O)CN1C(=O)[C@H](C(C)C)n1cc(-c2ccccn2)nn1 [Final product from Example S35, (2S,4R)-4-hydroxy-N-methyl-1-((S)-3-methyl-2-(4-(pyridin-2-yl)-1H-1,2,3-triazol-1-yl)butanoyl)pyrrolidine-2-carboxamide] |
| 1470 | 1960 | 1.33 | CNC(=O)[C@@H]1C[C@@H](O)CN1C(=O)[C@H](C(C)C)n1cc(-c2ccncc2)nn1 [Final product from Example S37, (2S,4R)-4-hydroxy-N-methyl-1-((S)-3-methyl-2-(4-(pyridin-4-yl)-1H-1,2,3-triazol-1-yl)butanoyl)pyrrolidine-2-carboxamide] |
| 1240 | 2120 | 1.71 | CNC(=O)[C@@H]1C[C@@H](O)CN1C(=O)[C@H](C(C)C)n1cc(C2(C)CC2)nn1 [Final product from Example S20, (2S,4R)-4-hydroxy-N-methyl-1-((S)-3-methyl-2-(4-(1-methylcyclopropyl)-1H-1,2,3-triazol-1-yl)butanoyl)pyrrolidine-2-carboxamide] |
| 890 | 800 | 0.90 | CNC(=O)[C@@H]1C[C@@H](O)CN1C(=O)[C@H](C(C)C)n1cc(-c2ccco2)nn1 [Final product from Example S19, (2S, 4R)-1-((S)-2-(4-(furan-2-yl)-1H-1,2,3-triazol-1-yl)-3-methylbutanoyl)-4-hydroxy-N-methylpyrrolidine-2-carboxamide] |
| 720 | 1690 | 2.35 | CNC(=O)[C@@H]1C[C@@H](O)CN1C(=O)[C@H](C(C)C)n1cc(-c2cncnc2)nn1 [Final product from Example S39, (2S,4R)-4-hydroxy-N-methyl-1-((S)-3-methyl-2-(4-(pyrimidin-5-yl)-1H-1,2,3-triazol-1-yl)butanoyl)pyrrolidine-2-carboxamide] |
| 460 | 570 | 1.24 | CNC(=O)[C@@H]1C[C@@H](O)CN1C(=O)[C@H](C(C)C)n1cc(-c2ccc(Cl)s2)nn1 [Final product from Example S40, (2S,4R)-1-((S)-2-(4-(5-chlorothiophen-2-yl)-1H-1,2,3-triazol-1-yl)-3-methylbutanoyl)-4-hydroxy-N-methylpyrrolidine-2-carboxamide] |
